Patent publication US11780826B2 (Amgen Inc., priority 2017, dated 2023)

Test system: Bovine cardiac myofibrils
Experiment: In vitro model of dose-dependent myofibril ATPase modulation (AC1.4, pyruvate kinase/lactate dehydrogenase-coupled ATPase assay at pCa25)
Format: biochemical
Settings: concentration at which ATPase activity was 1.4-fold higher than the bottom of the dose curve, mean of a minimum of two independent tests
Summary of the method: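 We measure calcium-buffered ATPase activity of detergent-skinned bovine cardiac myofibrils at pH 6.80 and 22° C with 1 mM ATP, using a PK/LDH-coupled NADH readout at 340 nm. Values come from four-parameter dose-response fits, averaged over at least two independent runs.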

`CS(=O)(=O)c1cncc(C(=O)N2[C@@H](C(=O)N[C@@H](c3cc(F)c(C(F)(F)F)cc3F)C3CC3)C[C@@H]3C[C@@H]32)c1` [Example 598, (1S,3R,5S)-N-((R)-cyclopropyl(2,5-difluoro-4-(trifluoromethyl)phenyl)methyl)-2-((5-(methylsulfonyl)-3-pyridinyl)carbonyl)-2-azabicyclo[3.1.0]hexane-3-carboxamide] and `O=C(N[C@@H](c1cc(F)c(C(F)(F)F)cc1F)C1CC1)[C@H]1C[C@H]2C[C@H]2N1C(=O)c1cccc(C(F)(F)F)n1` [Example 615, (1R,3R,5R)-N-((R)-cyclopropyl(2,5-difluoro-4-(trifluoromethyl)phenyl)methyl)-2-((6-(trifluoromethyl)-2-pyridinyl)carbonyl)-2-azabicyclo[3.1.0]hexane-3-carboxamide] are within 1.5-fold of each other in AC1.4: 3.0525 µM for the first, 3.8905 µM for the second.

`O=C(N[C@@H](c1ccc(C(F)(F)F)cc1F)C1CC1)[C@H]1C[C@H](F)CN1C(=O)c1cccc(C2(F)COC2)c1` [Example 599, (4S)-N-((R)-cyclopropyl(2-fluoro-4-(trifluoromethyl)phenyl)methyl)-4-fluoro-1-(3-(3-fluoro-3-oxetanyl)benzoyl)-D-prolinamide] and `CS(=O)(=O)c1cccc(C(=O)N2C[C@H](F)C[C@@H]2C(=O)N[C@@H](c2ccc(C(F)(F)F)cc2F)C2CC2)c1` [Example 619, (4R)-N-((R)-cyclopropyl(2-fluoro-4-(trifluoromethyl)phenyl)methyl)-4-fluoro-1-(3-(methylsulfonyl)benzoyl)-D-prolinamide] are within 1.5-fold of each other in AC1.4: 3.5615 µM for the first, 3.929 µM for the second.

`Cc1ccnc(C(=O)N2[C@@H](C(=O)N[C@@H](c3cc(F)c(Cl)cc3F)C3COC3)C[C@H]3C[C@H]32)c1` [Example 600, (1R,3R,5R)-N-((R)-(4-chloro-2,5-difluorophenyl)(3-oxetanyl)methyl)-2-((4-methyl-2-pyridinyl)carbonyl)-2-azabicyclo[3.1.0]hexane-3-carboxamide] and `Cc1cc(C(=O)N2[C@@H](C(=O)N[C@@H](c3cc(F)c(Cl)cc3F)C3COC3)C[C@H]3C[C@H]32)ccn1` [Example 621, (1R,3R,5R)-N-((R)-(4-chloro-2,5-difluorophenyl)(3-oxetanyl)methyl)-2-((2-methyl-4-pyridinyl)carbonyl)-2-azabicyclo[3.1.0]hexane-3-carboxamide] are within 1.5-fold of each other in AC1.4: 3.6113 µM for the first, 3.9478 µM for the second.

`CC(O)C(NC(=O)[C@H]1C[C@H]2C[C@H]2N1C(=O)c1cccc(S(C)(=O)=O)c1)c1ccc(C(F)(F)F)cc1F` (stereo partly drawn) [Example 601, (1R,3R,5R)-N-(1-(2-fluoro-4-(trifluoromethyl)phenyl)-2-hydroxypropyl)-2-(3-(methylsulfonyl)benzoyl)-2-azabicyclo[3.1.0]hexane-3-carboxamide] and `COc1ccc(S(C)(=O)=O)cc1C(=O)N1[C@@H](C(=O)N[C@@H](c2ccc(C(F)(F)F)cc2F)C2CC2)C[C@H]2C[C@H]21` [Example 612, (1R,3R,5R)-N-((R)-cyclopropyl(2-fluoro-4-(trifluoromethyl)phenyl)methyl)-2-(2-methoxy-5-(methylsulfonyl)benzoyl)-2-azabicyclo[3.1.0]hexane-3-carboxamide] are within 1.5-fold of each other in AC1.4: 3.276 µM for the first, 3.527 µM for the second.

`COc1ccc(S(C)(=O)=O)cc1C(=O)N1CCC[C@@H]1C(=O)N[C@@H](c1ccc(C(F)(F)F)cc1F)C1CC1` [Example 602, N-((R)-cyclopropyl(2-fluoro-4-(trifluoromethyl)phenyl)methyl)-1-(2-methoxy-5-(methylsulfonyl)benzoyl)-D-prolinamide] and `CS(=O)(=O)c1cccc(C(=O)N2CC3(CCC3)C2C(=O)N[C@@H](c2ccc(C(F)(F)F)cc2F)C2CC2)c1` (stereo partly drawn) [Example 609, N-((R)-cyclopropyl(2-fluoro-4-(trifluoromethyl)phenyl)methyl)-2-(3-(methylsulfonyl)benzoyl)-2-azaspiro[3.3]heptane-1-carboxamide] are within 1.5-fold of each other in AC1.4: 3.4595 µM for the first, 3.7443 µM for the second.

`Cc1cc(C(=O)N2[C@@H](C(=O)N[C@@H](c3cc(F)c(Cl)cc3F)C3COC3)C[C@H]3C[C@H]32)cc(C)n1` [Example 603, (1R,3R,5R)-N-((R)-(4-chloro-2,5-difluorophenyl)(3-oxetanyl)methyl)-2-((2,6-dimethyl-4-pyridinyl)carbonyl)-2-azabicyclo[3.1.0]hexane-3-carboxamide] and `O=C(c1ccccc1)c1cccc(C(=O)N2[C@@H](C(=O)N[C@@H](c3cc(F)c(Cl)cc3F)C3CC3)C[C@H]3C[C@H]32)c1` [Example 608, (1R,3R,5R)-2-(3-benzoylbenzoyl)-N-((R)-(4-chloro-2,5-difluorophenyl)(cyclopropyl)methyl)-2-azabicyclo[3.1.0]hexane-3-carboxamide] are within 1.5-fold of each other in AC1.4: 3.6775 µM for the first, 3.7405 µM for the second.

`N#CC1(c2cccc(C(=O)N3CCC[C@@H]3C(=O)N[C@@H](c3ccc(C(F)(F)F)cc3F)C3CC3)c2)CC1` [Example 604, 1-(3-(l-cyanocyclopropyl)benzoyl)-N-((R)-cyclopropyl(2-fluoro-4-(trifluoromethyl)phenyl)methyl)-D-prolinamide] and `O=C(N[C@@H](c1ccc(C(F)(F)F)cc1F)C1CC1)[C@H]1C[C@H]2C[C@H]2N1C(=O)c1ccnc(C(F)F)c1` [Example 605, (1R,3R,5R)-N-((R)-cyclopropyl(2-fluoro-4-(trifluoromethyl)phenyl)methyl)-2-((2-(difluoromethyl)-4-pyridinyl)carbonyl)-2-azabicyclo[3.1.0]hexane-3-carboxamide] are within 1.5-fold of each other in AC1.4: 3.679 µM for the first, 3.685 µM for the second.

`Cc1cccc(CNC(=O)[C@H]2CCCN2C(=O)[C@H]2CCCN(S(=O)(=O)N3CC(C#N)C3)C2)c1F` [Example 606, 1-(((3S)-1-((3-cyano-1-azetidinyl)sulfonyl)-3-piperidinyl)carbonyl)-N-(2-fluoro-3-methylbenzyl)-D-prolinamide] and `Cc1cccc(F)c1CNC(=O)[C@H]1CCCN1C(=O)[C@H]1CCCN(S(=O)(=O)N2CC(C#N)C2)C1` [Example 607, 1-(((3S)-1-((3-cyano-1-azetidinyl)sulfonyl)-3-piperidinyl)carbonyl)-N-(2-fluoro-6-methylbenzyl)-D-prolinamide] are within 1.5-fold of each other in AC1.4: 3.696 µM for the first, 3.714 µM for the second.

`O=C(NCc1ccc(C(F)(F)F)cc1F)[C@H]1CCCN1C(=O)[C@H]1CCCN(S(=O)(=O)N2CC(O)C2)C1` [Example 610, N-(2-fluoro-4-(trifluoromethyl)benzyl)-1-(((3S)-1-((3-hydroxy-1-azetidinyl)sulfonyl)-3-piperidinyl)carbonyl)-D-prolinamide] and `Cc1ccc(Cl)cc1CNC(=O)[C@H]1CCCN1C(=O)[C@H]1CCCN(S(=O)(=O)N2CC(C#N)C2)C1` [Example 618, N-(5-chloro-2-methylbenzyl)-1-(((3S)-1-((3-cyano-1-azetidinyl)sulfonyl)-3-piperidinyl)carbonyl)-D-prolinamide] are within 1.5-fold of each other in AC1.4: 3.7735 µM for the first, 3.9205 µM for the second.

`O=C(N[C@@H](c1ccc(C(F)(F)F)cc1F)C1COC1)[C@H]1C[C@H]2C[C@H]2N1C(=O)c1cncc(C2CC2)c1` [Example 611, (1R,3R,5R)-2-((5-cyclopropyl-3-pyridinyl)carbonyl)-N-((R)-(2-fluoro-4-(trifluoromethyl)phenyl)(3-oxetanyl)methyl)-2-azabicyclo[3.1.0]hexane-3-carboxamide] and `CCS(=O)(=O)c1cccc(C(=O)N2[C@@H](C(=O)NCc3cc(F)c(Cl)cc3F)C[C@H]3C[C@H]32)c1` [Example 617, (1R,3R,5R)-N-(4-chloro-2,5-difluorobenzyl)-2-(3-(ethylsulfonyl)benzoyl)-2-azabicyclo[3.1.0]hexane-3-carboxamide] are within 1.5-fold of each other in AC1.4: 3.788 µM for the first, 3.626 µM for the second.

`N#CC1CN(S(=O)(=O)N2CCC[C@H](C(=O)N3CCC[C@@H]3C(=O)NCc3ccc(Cl)nc3)C2)C1` [Example 613, N-((6-chloro-3-pyridinyl)methyl)-1-(((3S)-1-((3-cyano-1-azetidinyl)sulfonyl)-3-piperidinyl)carbonyl)-D-prolinamide] and `COc1ccc(CNC(=O)[C@H]2CCCN2C(=O)[C@H]2CCCN(S(=O)(=O)N3CC(C#N)C3)C2)c(C)c1` [Example 614, 1-(((3S)-1-((3-cyano-1-azetidinyl)sulfonyl)-3-piperidinyl)carbonyl)-N-(4-methoxy-2-methylbenzyl)-D-prolinamide] are within 1.5-fold of each other in AC1.4: 3.8643 µM for the first, 3.8655 µM for the second.

`N#CC1CC(S(=O)(=O)c2cccc(C(=O)N3CCCC[C@@H]3C(=O)NCc3ccc(Cl)nc3)c2)C1` (stereo partly drawn) [Example 620, (2R)-N-((6-chloro-3-pyridinyl)methyl)-1-((3-((cis-3-cyanocyclobutyl)sulfonyl)phenyl)carbonyl)-2-piperidinecarboxamide,(2R)-N-((6-chloro-3-pyridinyl)methyl)-1-((3-((trans-3-cyanocyclobutyl)sulfonyl)phenyl)carbonyl)-2-piperidinecarboxamide] and `N#CC1CN(S(=O)(=O)N2CCC[C@H](C(=O)N3CCC[C@@H]3C(=O)NCc3c(F)c(F)cc(F)c3F)C2)C1` [Example 623, 1-(((3S)-1-((3-cyano-1-azetidinyl)sulfonyl)-3-piperidinyl)carbonyl)-N-(2,3,5,6-tetrafluorobenzyl)-D-prolinamide] are within 1.5-fold of each other in AC1.4: 3.94 µM for the first, 3.975 µM for the second.

`COc1cc2c(cc1F)CCC2NC(=O)[C@H]1CCCN1C(=O)[C@H]1CCCN(S(=O)(=O)N2CC(C#N)C2)C1` (stereo partly drawn) [Example 622, (2R)-1-((S)-1-((3-cyanoazetidin-1-yl)sulfonyl)piperidine-3-carbonyl)-N-(5-fluoro-6-methoxy-2,3-dihydro-1H-inden-1-yl)pyrrolidine-2-carboxamide] and `CCC(NC(=O)[C@H]1CCCN1C(=O)[C@H]1CCCN(S(=O)(=O)N2CC(C#N)C2)C1)c1ccc(OC)cc1` (stereo partly drawn) [Example 625, (2R)-1-((S)-1-((3-cyanoazetidin-1-yl)sulfonyl)piperidine-3-carbonyl)-N-(1-(4-methoxyphenyl)propyl)pyrrolidine-2-carboxamide] are within 1.5-fold of each other in AC1.4: 3.9515 µM for the first, 4.01 µM for the second.
